Starred links: 1 amine or outer side, 2 acyl side, 3 side chain; linkers in the order of their positions; H or OH if unused. Positions of bridges follow the written chain, without caps; N, C: chain ends. Non-standard residues stand in square brackets, D forms with d. Residues, ends and D or L forms follow the SMILES beside them. *: point of attachment. Ala(piperidin-4-yl) = O=C([C@H](CC1CCN([*:3])CC1)N[*:1])[*:2]; Ala(1-amidino-4-piperidyl) = N=C(N)N1CCC(C[C@H](N)C(=O)O)CC1; X9 = COc1ccc(Cn2cnc(C[C@H](N[*:1])C(=O)[*:2])c2)cc1; Phe(4-amidino) = N=C(N)c1ccc(C[C@H](N)C(=O)O)cc1; Bta = N[C@@H](Cc1csc2ccccc12)C(=O)O; Hydrocinnamoyl = O=C(CCc1ccccc1)*; 4Pal = N[C@@H](Cc1ccncc1)C(=O)O; Cha = N[C@@H](CC1CCCCC1)C(=O)O; dCha = N[C@H](CC1CCCCC1)C(=O)O; AllylGly = C=CC[C@H](N)C(=O)O; Pip = O=C(O)[C@@H]1CCCCN1; NMeA = CN[C@@H](C)C(=O)O; Nle = CCCC[C@H](N)C(=O)O; Orn = NCCC[C@H](N)C(=O)O; Dab = NCC[C@H](N)C(=O)O; X17 = c1cc(CC*)ccn1
T1: human C5aR(CD88) (Homo sapiens, UniProt P21730)
T1 construct: expressed in transfected cells; host or cells: rat basophilic leukemia cells (RBL)
T1 sequence (P21730 1-350): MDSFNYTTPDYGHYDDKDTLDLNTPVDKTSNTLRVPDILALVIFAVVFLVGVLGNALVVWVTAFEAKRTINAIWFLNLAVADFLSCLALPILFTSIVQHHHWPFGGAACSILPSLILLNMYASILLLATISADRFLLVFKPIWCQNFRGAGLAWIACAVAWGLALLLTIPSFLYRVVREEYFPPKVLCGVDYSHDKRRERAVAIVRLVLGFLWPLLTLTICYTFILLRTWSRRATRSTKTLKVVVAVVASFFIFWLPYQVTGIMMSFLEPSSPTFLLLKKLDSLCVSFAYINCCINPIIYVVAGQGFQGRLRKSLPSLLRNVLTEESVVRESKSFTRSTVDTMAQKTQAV

B1: hrC5a: hrC5a (Sigma), added for stimulation of enzyme release (protein, UniProt P01031 678-751, looked up)
C5a anaphylatoxin: TLQKKIEEIAAKYKHSVVKKCCYDGACVNNDETCEQRAARISLGPRCIKAFTECCVVASQLRANISHKDMQLGR
modifications: C5a anaphylatoxin
notes: hrC5a (Sigma), added for stimulation of enzyme release

Key:
[1] = target: T1, human C5aR(CD88); assay: Determination of the IC50 value in an enzyme release assay (functional assay, antagonistic activity); type: cell-based; details: for IC50: antagonistic activity, IC50 group in enzyme release assay, RBL cells expressing human C5aR(CD88), read-out: activity (group); for inhibitory activity (in words): functional assay of example 11, noteworthy = IC50 less than 200 nM
[2] = target: T1, human C5aR(CD88); assay: Determination of EC50-values in an enzyme release assay (agonistic activity); type: cell-based; details: for EC50: agonistic activity, no C5a added, read-out: EC50; for agonistic activity (in words): cellular assay, up to a concentration of at least 1430 nM
Procedure: The assay procedure was described by Kohl (Kohl 1997 The Anaphylatoxins. In: Dodds, A. W., Sim, R. B. (Eds.), Complement: A Practical Approach. Oxford, pp. 135-163). Basophilic leukemia cells from rats (RBL), which express the human C5aR(CD88), were cultivated in DMEM with 10% fetal bovine serum, 100 U/ml penicillin, 100 μg/ml streptomycin and 2 mM glutamine (all components of the media from Biochrome, Berlin) to confluence at 37° C. and 10% CO2. The following specifications refer to single cell culture flask having a surface of 75 cm^2. Medium was decanted from cells. Cells were washed with 10 ml PBS (Dulbecco's PBS, Biochrome) and subsequently overlayed with 3 ml Cell Dissociation Solution (CDS, Sigma). Cells were incubated for 1 min at room temperature. Subsequently, CDS was removed and the cells were further incubated for 10-15 min at 37° C. for dissociation. In the assay, 20 μl of the solution containing the compound to be tested were used. This solution should not contain more than 2.8% DMSO. For the dilution process, the compounds were diluted in ⅓ or ½ steps. To 20 μl compound solution 75 μl of the RBL-cells were added, which were treated as follows: after dissociation cells were detached and warmed at 37° C. in 10 ml HAG-CM (20 mM HEPES; 125 mM NaCl, 5 mM KCl, 1 mM CaCl2, 1 mM MgCl2, 0,5 mM Glucose, 0,25% BSA. HEPES-preparation: 2.3 g/l HEPES-salt +2.66 g/l HEPES acid). Cells were counted and centrifuged (200×g, 10 min). The cell pellet was resuspended in preheated HAG-CM (i.e. Hepes-buffer NaCl-glucose-solution with calcium and magnesium), and the cell density was adjusted to 2×10^6 cells/ml. The cells were incubated at 37° C. for 5 min. Per ml cell suspension 27 μl of a cytochalasin B-solution were added (100 μg/ml in DMSO, Sigma). The cells were incubated for further 3 min at 37° C. 75 μl of the cell suspension were added to 20 μl compound solution leading to a volume of 95 μl per well. After incubation of the cells for 10 min at 37° C. 10 μl hrC5a (10.5 nM in HAG-CM, Sigma) per well were added. The cells were incubated for additional 5 min at 37° C. The mtp was then transferred to ice and centrifuged for 3 min at 4° C. with 1200×g. 75 μl of the supernatant were added to 100 μl substrate-solution (2.7 mg/ml p-nitrophenyl-N-acetyl-β-D-glucosaminide (Sigma) in 42.5 mM Na-acetate pH 4.5). The mtp was incubated for further 60 min at 37° C. 75 μl 0.4 M glycine pH 10.4 were added per well. The mtp was transferred into a reader and the absorption at 405 nm was measured. IC50-values were obtained following the equation; y=((A-D)/(1+(x/C)^B))+D.
Determination of EC50-Values in an Enzyme Release Assay
The determination of EC50-values was performed according to the procedure given in example II, with the exception that 30 μl of the test compound need to be mixed with 75 μl of the cell suspension mentioned in example 11. Neither preincubation nor addition of C5a for stimulation of enzyme release is needed.

| Molecule | IC50 [1] [nM] | EC50 [2] [nM] | agonistic activity (in words) [2] | further results |
| --- | --- | --- | --- | --- |
| CCCC[C@@H]1NC(=O)[C@H](Cc2c[nH]c3ccccc23)NC(=O)[C@@H](CC2CCCCC2)NC(=O)[C@@H]2CCCN2C(=O)[C@@H](NC(=O)[C@H](Cc2ccccc2)NC(=O)CON=CC(O)C(O)C(O)C(O)CO)CCCNC1=O (single isomer, unassigned) [Compound 3, HOCH2(CHOH)4—C═N—O—CH2—CO-Phe-[Orn-Pro-cha-Trp-Nle]] | 50 to 200 | > 1430 | pure antagonists | inhibitory activity (in words) [1]: noteworthy inhibitory activity |
| CC(=O)N[C@@H](Cc1ccccc1)C(=O)N[C@@H](CCCN)C(=O)N[C@H](CC1CCCCC1)C(=O)N[C@H](CC1CCCCC1)C(=O)N[C@@H](Cc1csc2ccccc12)C(=O)N[C@@H](Cc1ccccc1)C(N)=O [Ac-Phe-Orn-cha-cha-Bta-Phe-NH2] (Ac-F[Orn][dCha][dCha][Bta]F-NH2) |  |  | pure antagonists |  |
| C=CC[C@@H]1NC(=O)[C@H](Cc2c[nH]c3ccccc23)NC(=O)[C@@H](CC2CCCCC2)NC(=O)[C@@H]2CCCN2C(=O)[C@@H](NC(=O)[C@H](Cc2ccccc2)NC(C)=O)CCCNC1=O [Compound 33, Ac-Phe-[Orn-Pro-cha-Trp-Eaf]] (Ac-F[Orn]P[dCha]W[AllylGly]; lactam 2-C) | 5 to 10 | > 1430 | pure antagonists | inhibitory activity (in words) [1]: without significant loss of activity; inhibitory activity (in words) ([1]; listed as Ac-Phe-[Orn-Pro-cha-Trp-Eaf]): noteworthy inhibitory activity |
| CCCC[C@@H]1NC(=O)[C@H](Cc2c[nH]c3ccccc23)NC(=O)[C@@H](CC2CCCCC2)NC(=O)[C@@H]2CCCN2C(=O)[C@@H](NC(=O)CCc2ccccc2)CCCNC1=O [Compound 41, Ph-CH2—CH2—CO-[Orn-Pro-cha-Trp-Nle]] (Hydrocinnamoyl-[Orn]P[dCha]W[Nle]; lactam 1-C) | 10 to 20 | > 1430 | pure antagonists | inhibitory activity (in words) [1]: noteworthy inhibitory activity |
| CCCC[C@@H]1NC(=O)[C@H](Cc2c[nH]c3ccccc23)NC(=O)[C@@H](CC2CCCCC2)NC(=O)[C@H](CO)NC(=O)[C@@H](NC(=O)[C@@H](N)Cc2ccccc2)CCCNC1=O [Compound 44, H-Phe-[Orn-Ser-cha-Trp-Nle]] (H-F[Orn]S[dCha]W[Nle]; lactam 2-C) |  |  | pure antagonists |  |
| CC(=O)N[C@@H](Cc1ccccc1)C(=O)N[C@@H](CCCN)C(=O)N1CCCC[C@H]1C(=O)N[C@H](CC1CCCCC1)C(=O)N[C@@H](Cc1c[nH]c2ccccc12)C(=O)N[C@@H](Cc1ccccc1)C(N)=O [Compound 55, Ac-Phe-Orn-Pip-cha-Trp-Phe-NH2] (Ac-F[Orn][Pip][dCha]WF-NH2) | 20 to 50 | > 100000 | pure antagonists |  |
| CC(=O)N[C@@H](Cc1ccccc1)C(=O)N[C@@H](CCCN)C(=O)N1CCC[C@H]1C(=O)N[C@H](CC1CCCCC1)C(=O)N[C@@H](Cc1c[nH]c2ccccc12)C(=O)N[C@@H](Cc1ccccc1)C(N)=O [Compound 61, Ac-Phe-Orn-Pro-cha-Trp-Phe-NH2] (Ac-F[Orn]P[dCha]WF-NH2) |  | > 100000 | pure antagonists |  |
| N[C@@H](Cc1ccccc1)C(=O)N[C@H]1CCCNC(=O)[C@H](Cc2ccccc2)NC(=O)[C@H](Cc2c[nH]c3ccccc23)NC(=O)[C@@H](CC2CCCCC2)NC(=O)[C@@H]2CCCN2C1=O [H-Phe-[Orn-Pro-cha-Trp-Phe]] (H-F[Orn]P[dCha]WF; lactam 2-C) |  |  | pure antagonists |  |
| CC(=O)N[C@@H](Cc1ccccc1)C(=O)N[C@H]1CCCNC(=O)[C@H](CSCCc2ccncc2)NC(=O)[C@H](Cc2c[nH]c3ccccc23)NC(=O)[C@@H](CC2CCCCC2)NC(=O)[C@@H]2CCCN2C1=O [compound 19] (Ac-F[Orn]P[dCha]WC(X17); lactam 2-C) | 200 to 2000 |  |  |  |
| CC(=O)N[C@@H](Cc1ccccc1)C(=O)N[C@H]1CCCNC(=O)[C@H](Cc2ccc(C(=N)N)cc2)NC(=O)[C@H](Cc2c[nH]c3ccccc23)NC(=O)[C@@H](CC2CCCCC2)NC(=O)[C@@H]2CCCN2C1=O [compound 21] (Ac-F[Orn]P[dCha]W[Phe(4-amidino)]; lactam 2-C) | 200 to 2000 |  |  |  |
| CC(=O)N[C@@H](Cc1ccccc1)C(=O)N[C@H]1CCCNC(=O)[C@H](Cc2ccncc2)NC(=O)[C@H](Cc2c[nH]c3ccccc23)NC(=O)[C@@H](CC2CCCCC2)NC(=O)[C@@H]2CCCN2C1=O [compound 23] (Ac-F[Orn]P[dCha]W[4Pal]; lactam 2-C) | 50 to 200 |  |  |  |
| CC(=O)N[C@@H](Cc1ccccc1)C(=O)N[C@H]1CCCNC(=O)[C@H](CCN)NC(=O)[C@H](Cc2c[nH]c3ccccc23)NC(=O)[C@@H](CC2CCCCC2)NC(=O)[C@@H]2CCCN2C1=O [compound 25] (Ac-F[Orn]P[dCha]W[Dab]; lactam 2-C) | 50 to 200 |  |  |  |
| COc1ccc(Cn2cnc(C[C@@H]3NC(=O)[C@H](Cc4c[nH]c5ccccc45)NC(=O)[C@@H](CC4CCCCC4)NC(=O)[C@@H]4CCCN4C(=O)[C@@H](NC(=O)[C@H](Cc4ccccc4)NC(C)=O)CCCNC3=O)c2)cc1 [compound 26] (Ac-F[Orn]P[dCha]W[X9]; lactam 2-C) | 200 to 2000 |  |  |  |
| CC(=O)N[C@@H](Cc1ccccc1)C(=O)N[C@H]1CCCNC(=O)[C@H](CC2CCNCC2)NC(=O)[C@H](Cc2c[nH]c3ccccc23)NC(=O)[C@@H](CC2CCCCC2)NC(=O)[C@@H]2CCCN2C1=O [compound 27] (Ac-F[Orn]P[dCha]W[Ala(piperidin-4-yl)]; lactam 2-C) | > 2000 |  |  |  |
| CC(=O)N[C@@H](Cc1ccccc1)C(=O)N[C@H]1CCCNC(=O)[C@H](CC2CCN(C(=N)N)CC2)NC(=O)[C@H](Cc2c[nH]c3ccccc23)NC(=O)[C@@H](CC2CCCCC2)NC(=O)[C@@H]2CCCN2C1=O [compound 30] (Ac-F[Orn]P[dCha]W[Ala(1-amidino-4-piperidyl)]; lactam 2-C) | > 2000 |  |  |  |
| CC(=O)N[C@@H](Cc1ccccc1)C(=O)N[C@H]1CCCNC(=O)[C@H](CCCNC(=N)N)NC(=O)[C@H](Cc2c[nH]c3ccccc23)NC(=O)[C@@H](CC2CCCCC2)NC(=O)[C@H](C)N(C)C1=O [compound 46] (Ac-F[Orn][NMeA][dCha]WR; lactam 2-C) | 20 to 50 |  |  |  |
| CC(=O)N[C@@H](Cc1ccccc1)C(=O)N[C@H]1CCCNC(=O)[C@H](CCCN=C(N)N)NC(=O)[C@H](C)NC(=O)[C@@H](CC2CCCCC2)NC(=O)[C@@H]2CCCN2C1=O [compound 48] (Ac-F[Orn]P[dCha]AR; lactam 2-C) | > 2000 |  |  |  |
| CC(=O)N[C@@H](Cc1ccccc1)C(=O)N[C@@H](CCCCN)C(=O)N[C@@H](C)C(=O)N[C@@H](CC1CCCCC1)C(=O)N[C@@H](C)C(=O)N[C@@H](CC(C)C)C(=O)N[C@H](C)C(=O)N[C@@H](Cc1ccc(O)cc1)C(=O)O [compound 60] (Ac-FKA[Cha]AL[dA]Y-OH) | 200 to 2000 |  |  |  |
| Ac-Phe-[Orn-Hyp(CONHCH2COH(OH)CH2OH)-cha-Trp-Phe] |  |  |  | inhibitory activity (in words) [1]: noteworthy inhibitory activity |
| B1 |  | 2.4 |  |  |

Reference: patent US20080161232A1, “C5a Receptor Antagonist” (JERINI AG, priority 2005, published 2008)
